Patent US11370766B2, “Sulfonyl amidine as indoleamine-2,3-dioxygenase inhibitor, and preparation method therefor and use thereof” (SHANGHAI LONGWOOD BIOPHARMACEUTICALS CO., LTD., priority 2016, dated 2022)
Like-named read-outs stand apart in the source and are kept apart here.

Columns and labels:
IDO1 in Hela cells = molecular target: T1, IDO1 in Hela cells (Homo sapiens, UniProt P14902); experiment: IDO cytology test (LC-MS), kynurenine in IFN-gamma-stimulated Hela cells; format: cell-based; settings: interferon gamma 100 ng/mL, 20 h, kynurenine by LC/MS
T1 construct: endogenous in cells; host or cells: Hela cells, IFN-gamma stimulated
From the text: 2. IDO Cytology Test Method (LC-MS)
Content of research: the inhibitory effect of the compound on the activity of IDO1 in Hela cells was examined.
RPMI 1640 (phenol red free) medium (Invitrogen Cat. No. 11835030), fetal bovine serum (Invitrogen Cat. No. 10099141), penicillin and streptomycin (Invitrogen Gibco Cat. No. 15140-122), recombinant human interference γ (R&D system, Cat. No. 285-IF-100). 5% (w/v) trichloroacetic acid (Alfa Aesar Cat. No. A11156), DMSO (Sigma, Cat. No. D2650), 96-well plate_compound dilution plate (Axygen, Cat. No. WIPP02280), 96-well plate_test plate (Greiner, Cat. No. 655090)
The test compounds and the reference compound LW3018 were finally tested at concentrations ranging from […] to 0.76 nM, 3-fold gradient dilution, 9 concentrations, and two replicate wells.
Hela cells were plated in 96-well cell culture plates at a number of 40,000 cells per well, and incubated with RPMI 1640 containing 10% fetal bovine serum for 5-6 hours. The diluted test compound and recombinant human interferon gammaa (final concentration at 100 ng/mL) were added to activate IDO1 expression. The cells were cultured in a 37° C. cell incubator which was enriched with 5% carbon dioxide for 20 hours, and the reaction was stopped with 5% trichloroacetic acid and incubated for 30 minutes at 50° C. After the cell culture solution was precipitated, the supernatant was sent to LC/MS to detect the content of kynurenine. Data analysis and mapping was conducted by XLfit5 software.

IDO1 = molecular target: T2, IDO1 (Homo sapiens, UniProt P14902); experiment: IDO1 enzyme activity test (NFK Green); format: biochemical; settings: 10 nM IDO1, 100 uM L-tryptophan, NFK green fluorescence; read-out: IDO IC50
T2 construct: purchased NTRC NTRC-hTDO-1K
Method: 1. IDO1 Enzyme Activity Test Method (NFK Green)
Content of research: the inhibitory effect of the compound on the activity of IDO1 enzyme was examined.
IDO assay kit (NTRC, Cat. No. NTRC-hTDO-1K), DMSO (Sigma, Cat. No. D2650), 384-well plate_compound dilution plate (Greiner, Cat. No. 781280), 384-well plate_test plate (Perkin Elmer, Cat. No. 6007299)
10 nM IDO1 was incubated with compound or DMSO at 23° C. for 30 minutes, and L-type tryptophan was added at a final concentration of 100 uM and reacted for 1.5 hours. NFK green was added and incubated at 37° C. for 4 hours, and fluorescence signal data (excitation band, 400/25; emission band, 510/20) was corrected with Envision. Data analysis and mapping was conducted by XLfit5 software.
The test compounds and the reference compound LW3018 were finally tested at concentrations ranging from […] to 0.51 nM, 3-fold gradient dilution, 10 concentrations, and two replicate wells.

[1] = Pharmacokinetics of LW105-1-1 in mice; format: in vivo; settings: plasma, male C57BL/6 mice; for AUC(0-t): male, C57BL/6, mouse; for MRT last: read-out: MRT0-last; for bioavailability: after dose standardization, read-out: F% (absolute bioavailability); for Cmax: read-out: Cmax (head printed as image)
Method: 18 male C57BL/6 mice were intragastrically or intravenously administered with compound LW105-1-1 (Table 3).
The preparation containing 5% DMA and 20% HPbCD aqueous solution as a solvent was administered by intravenous injection, and a preparation containing a solution comprising 5% DMA, 20% HPbCD and 0.1% CREMOPHOR EL as a solution was intragastrically administered. The animal strain was male C57BL/6 mice. Prior to the animal experiment, all animals were fasted and fed 4 hours after dosing; all animals were given free access to water.
Intravenous administration group: before administration, 0.083, 0.25, 0.5, 1, 2, 4, 8 and 24 hours after.
Oral administration group: before administration, 0.25, 0.5, 1, 2, 4, 8 and 24 hours after
Whole blood samples (0.03 mL) were collected from the saphenous vein at the indicated time (or other suitable blood collection sites), and all blood samples were added to a plastic centrifuge tube pre-filled with K2-EDTA anticoagulant and labeled. After the blood sample was collected, centrifuged for 10 minutes under 2 to 8° C. at 3000 g, and the supernatant plasma was aspirated, and quickly placed in dry ice, and kept at −20° C. or lower for LC-MS/MS analysis.
The concentrations of all samples were analyzed using LC-MS/MS. Plasma mean concentrations were processed using a non-compartmental model of WinNonlin™ Version 6.3 (Pharsight, Mountain View, Calif.) pharmacokinetic software, and pharmacokinetic parameters were calculated by linear logarithmic trapezoidal method.

[2] = test system: mouse colorectal cancer CT26 transplanted tumor; experiment: In vivo efficacy test of mouse colorectal cancer CT26 transplanted tumor
Method: Example 5 In Vivo Efficacy Test of Mouse Colorectal Cancer CT26 Transplanted Tumor
Under sterile conditions, CT26 cells in the proliferative phase were harvested, cell concentration was adjusted after digestion, and inoculated into the right hind limb of the mouse. Each mouse was inoculated with 1×10^5 CT26 cells in an inoculation volume of 0.1 mL. Four days after the inoculation, the average tumor volume was close to 20-30 mm^3, and the mouse was administered in a randomized group. The day of administration was recorded as DO, and the negative control was given same amount of vehicle. Co-administration of LW 105-1-1 with Anti-CTLA4 antibody was also tested in this experiment. After the administration was started, the tumor long diameter and short diameter were measured 3 times per week.

T2 sequence (P14902 whole entry): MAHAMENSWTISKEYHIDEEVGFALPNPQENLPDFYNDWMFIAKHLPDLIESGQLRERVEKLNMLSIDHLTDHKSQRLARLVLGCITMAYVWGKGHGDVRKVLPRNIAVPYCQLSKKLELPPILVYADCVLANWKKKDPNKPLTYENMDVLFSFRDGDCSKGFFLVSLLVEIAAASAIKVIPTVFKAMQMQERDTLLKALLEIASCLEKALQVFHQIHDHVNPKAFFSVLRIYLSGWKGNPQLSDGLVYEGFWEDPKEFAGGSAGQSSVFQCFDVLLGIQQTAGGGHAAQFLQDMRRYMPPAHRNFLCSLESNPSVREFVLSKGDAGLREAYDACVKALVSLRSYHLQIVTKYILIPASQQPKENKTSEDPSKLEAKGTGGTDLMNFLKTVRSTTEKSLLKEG
T1 sequence (P14902 whole entry): as above

With `CS(=N)(=O)NCCCNc1nonc1C(=NO)Nc1ccc(F)c(Br)c1` (stereo not drawn) [LW105-1-11] the IC50 (IDO1 in Hela cells) was 11.1 nM and the IC50 (IDO1) was 26.5 nM.
For `N=S(=O)(NCCNc1nonc1C(=NO)Nc1ccc(F)c(Br)c1)C1CC1` (stereo not drawn) [LW105-1-4], the IC50 (IDO1 in Hela cells) was 7.2 nM and the IC50 (IDO1) was 29.4 nM.
`CC(C)S(=N)(=O)NCCNc1nonc1C(=NO)Nc1ccc(F)c(Br)c1` (stereo not drawn) [LW105-1-3] showed an IC50 (IDO1 in Hela cells) of 12.7 nM and an IC50 (IDO1) of 19.4 nM.
In the case of `CS(=N)(=O)NCCNc1nonc1C(=NO)Nc1ccc(F)c(Br)c1` (racemic) [LW105-1-1], the IC50 (IDO1 in Hela cells) is reported as 11.5 nM, the IC50 (IDO1) is reported as 22.3 nM and the AUC(0-t) ([1]; iv, 3 mg/kg, intravenous 3 mg/kg) is reported as 1430 ng·h/mL. For the same molecule, the AUC(0-t) ([1]; po, 30 mg/kg, oral gavage 30 mg/kg) was 10100 ng·h/mL, the AUC(0-t) ([1]; po, 100 mg/kg, oral gavage 100 mg/kg) was 39400 ng·h/mL and the half-life ([1]; mouse, 3 mg/kg, heading: T1/2, intravenous 3 mg/kg) was 0.688 h. It also gave an AUC(0-inf) ([1]; mouse, intravenous 3 mg/kg) of 1450 ng·h/mL, a C0 ([1]; mouse, intravenous 3 mg/kg) of 2560 ng/mL and a clearance ([1]; mouse, intravenous 3 mg/kg) of 34.5 mL/min/kg. For the same molecule, the MRT last ([1]; mouse, intravenous 3 mg/kg) was 0.904 h, the Vd ([1]; mouse, intravenous 3 mg/kg, read-out: steady-state volume (Vdss)) was 1.87 L/kg and the AUC(0-inf) ([1]; mouse, oral gavage 30 mg/kg) was 10100 ng·h/mL. For the same molecule, the Tmax ([1]; mouse, oral gavage 30 mg/kg) was 0.5 h, the bioavailability ([1]; mouse, oral gavage 30 mg/kg) was 69.9% and the Cmax ([1]; mouse, oral gavage 30 mg/kg) was 4810 ng/mL. It also gave an MRT last ([1]; mouse, oral gavage 30 mg/kg) of 3.11 h, a half-life ([1]; mouse, oral gavage 30 mg/kg, read-out: T1/2 (converted)) of 2.7 h and an AUC(0-inf) ([1]; mouse, oral gavage 100 mg/kg) of 39300 ng·h/mL. The Tmax ([1]; mouse, oral gavage 100 mg/kg) was 0.25 h, the bioavailability ([1]; mouse, oral gavage 100 mg/kg) was 81.4% and the Cmax ([1]; mouse, oral gavage 100 mg/kg) was 20700 ng/mL. The MRT last ([1]; mouse, oral gavage 100 mg/kg) was 1.99 h, the half-life ([1]; mouse, oral gavage 100 mg/kg, read-out: T1/2 (converted)) was 2.11 h and the tumor inhibition rate ([2]; mouse CT26 model, 300 mg/kg oral twice a day) was 40.6%. The anti-tumor growth effect ([2]; mouse CT26 model, 30, 100, 300 mg/kg oral) was “dose-dependent anti-tumor growth effect”.
`CCS(=N)(=O)NCCNc1nonc1C(=NO)Nc1ccc(F)c(Br)c1` (stereo not drawn) [LW105-1-2] gave an IC50 (IDO1 in Hela cells) of 15.6 nM and an IC50 (IDO1) of 25.2 nM.
